In patent US20160366882A1, “AGROCHEMICAL COMPOSITIONS FOR INDUCING ABIOTIC STRESS TOLERANCE” (VIB VZW, priority 2012, published 2016):

What was measured:
[1] = test system: catalase-2 mutant A. thaliana plantlets (cat2-2); test: agar assay: rescue of cell death of catalase-2 mutants under photorespiratory conditions (Restricted Gas exchange Constant Light; RGCL); type: in vivo, Arabidopsis thaliana; details: grown under photorespiratory conditions
Protocol: FIG. 2: effect of 5 μM of compound 4 on the rescue of cell death of the catalase-2 mutant A. thaliana plantlets when grown under photorespiratory conditions. Photorespiratory conditions are, for example, as herein used, restricted-gas-exchange-constant light conditions. […] Photorespiration (Rp) is a major source of detrimental effects and yield losses in crop plants. Catalase is one of the crucial proteins in the Rp process since it provides the dissipation sink of photosynthetic excitation overload in the role of Rp as a photo-protective mechanism. Secondly, and as part of the same process, catalase provides effective defense against excessive hydrogen peroxide levels, without requiring additional energy from other sources. Catalase knock-out mutant plants thus provide an excellent tool to study the process of Rp (see Vandenabeele S et al., (2003) PNAS 100, 26, 16113-16118). In the disclosure, we developed a high-throughput screening assay by using a catalase-2 deficient plant. […] Fv/Fm is presented as a ratio of variable fluorescence (Fv) over the maximum fluorescence value (Fm). […] On a regular basis Fv/Fm was monitored for all wells, using a Walz Maxi PAM imager. Several days after transfer to constant light the individual wells were visually scored for cell death. […] Three persons scored independently, and only a consensus of ⅔ scores were maintained as positive hits. […]

[2] = test system: Oilseed rape of the variety Alessio; test: salt tolerance in oilseed rape (vitality index after salt water irrigation); type: in vivo; details: 24 h later 50 ml salt water per pot, 80 grams of NaCl per liter, assessed 3 and 4 days after treatment
Protocol: Oilseed rape of the variety Alessio was sown in small pots (8×8×8 cm) filled with universal peat at 4 grains per pot. The plants were grown in a non-heated greenhouse until BBCH 13 (3 unfolded leaves). At that stage the number of plants per pot was reduced to 2, and the plants were either or not treated with dichloroprop-P (Duplosan DP, 600 g/l dichloroprop-P, Nufarm UK Limited), using a Birchmeier hand sprayer with an operating pressure of 2 bar. Per object 8 pots were treated. The 8 pots were put in line, 5 cm apart, and were sprayed overhead within 6 seconds. Two different concentrations of dichloroprop-P were applied: 4 mg/l or 8 mg/l. 24 hours after treatment, the plants were irrigated with salt water, giving 50 ml of water per pot at a concentration of 80 grams of NaCl per liter of water. The following days the plants were assessed visually for salt damage. Plants were divided into 3 categories: high vitality (=2), only moderate vitality (=1) or low vitality (=0), based on which a vitality index was calculated, ranging from 0 (low vitality) to 100 (high vitality).

[3] = test system: Maize of the variety Maibi; test: frost tolerance in maize (crop condition index after frost regime); type: in vivo; details: 24 h later 6 hours at −2° C., assessed 2 days after treatment
Protocol: Maize of the variety Maibi was sown in small pots (8×8×8 cm) filled with universal peat at 4 grains per pot. The plants were grown in a non-heated greenhouse until BBCH 13 (3 unfolded leaves). At that stage plants were either or not treated with dichloroprop-P (Duplosan DP, 600 g/l dichloroprop-P, Nufarm UK Limited), using a Birchmeier hand sprayer with an operating pressure of 2 bar. Per object 10 pots were treated. The 10 pots were put in line, 5 cm apart, and were sprayed overhead within 6 seconds. Four different concentrations of dichloroprop-P were applied: 4 mg/l, 8 mg/1, 12 mg/l or 16 mg/l. 24 hours after treatment, the plants were transferred in to a refrigerator that was set at −2° C. for 6 hours. Afterwards the plants were transferred back to the greenhouse. The day after the cold treatment (so 2 days after application of dichloroprop-P) the plants were assessed visually for frost damage. Plants were divided into 3 categories: Good crop condition (=2), only moderate crop condition (=1) or bad crop condition (=0), based on which a crop condition index was calculated, ranging from 0 (bad crop condition) to 100 (good crop condition).

Cc1ccnc(NC(=O)COc2ccc(Cl)cc2Cl)c1 [variant 2]
rescue of cell death of the cat2-2 mutant ([1]; 50 nM): rescues cell death

CCCCC(CC)COC(=O)C(C)Oc1ccc(Cl)cc1Cl (stereo not shown) [variant 1]
rescue of cell death of the cat2-2 mutant ([1]; 100 nM): rescues cell death

CC(Oc1ccc(Cl)cc1Cl)C(=O)O (stereo not shown) [dichloroprop-P]
vitality in salt stress conditions (salt stress tolerance) ([2]; spray 4 mg/l at BBCH 13): comparable increase in salt stress tolerance | vitality in salt stress conditions (salt stress tolerance) ([2]; spray 8 mg/l at BBCH 13): comparable increase in salt stress tolerance | crop condition after frost (frost tolerance) ([3]; spray 4 mg/l at BBCH 13): better crop condition after frost | crop condition after frost (frost tolerance) ([3]; spray 12 mg/l at BBCH 13): negative effect on frost tolerance | crop condition after frost (frost tolerance) ([3]; spray 16 mg/l at BBCH 13): negative effect on frost tolerance
